# Measured values reported in patent publication US9809574B2, “Isoindoline or isoquinoline compounds, a process for their preparation and pharmaceutical compositions containing them” (LES LABORATOIRES SERVIER, priority 2013, dated 2017).
# Counter-ions that a name gives are not always drawn.
# Experiments:
# [1] = biological target: Bcl-2 protein (histag-Bcl-2, UniProtKB P10415) (Homo sapiens (Human), UniProt P10415); assay: Inhibition of Bcl-2 by the fluorescence polarisation technique; format: binding; settings: fluorescence polarisation test; incubation for 2 hours; read-out: IC50 (nM) Bcl-2 FP
# Description: For partial inhibitors, the percentage fluorescence polarisation inhibition for a given concentration of the test compound is indicated.
# [2] = tested on: RS4; 11 leukaemia cell line; assay: In vitro cytotoxicity, Microculture Tetrazolium Assay (MTT); format: cell-based; settings: Homo sapiens, 11 cells exposed for 48 hours
# Method: The cytotoxicity studies were carried out on the RS4; 11 leukaemia cell line and on H146 small Cell Lung Carcinoma cell line. The cells are distributed onto microplates and exposed to the test compounds for 48 hours. The cell viability is then quantified by a colorimetric assay, the Microculture Tetrazolium Assay (Cancer Res., 1987, 47, 939-942).
# Chain of Bcl-2 protein (P10415 whole entry): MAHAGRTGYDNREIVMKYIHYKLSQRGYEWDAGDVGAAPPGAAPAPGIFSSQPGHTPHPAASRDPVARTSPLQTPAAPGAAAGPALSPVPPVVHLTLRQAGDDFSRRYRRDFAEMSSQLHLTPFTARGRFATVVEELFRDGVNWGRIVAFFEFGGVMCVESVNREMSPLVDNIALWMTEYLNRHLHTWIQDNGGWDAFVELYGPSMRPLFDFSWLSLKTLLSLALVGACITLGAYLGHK
IC50 [1] [nM],Structure (SMILES),IC50 [2] [nM]
8.4,"Cc1c(C(=O)N(C)c2ccc(O)cc2)cc(-c2cc3c(cc2C(=O)N2Cc4ccccc4C[C@H]2C)CN(C(=O)NCc2ccccc2)C3)n1C [Example 111, N-Benzyl-5-{4-[(4-hydroxyphenyl)(methyl)carbamoyl]-1,5-dimethyl-1H-pyrrol-2-yl}-6-[(3R)-3-methyl-1,2,3,4-tetrahydroisoquinoline-2-carbonyl]-2,3-dihydro-1H-isoindole-2-carboxamide]",64
9.2,"CN(C(=O)c1cc(-c2cc3c(cc2C(=O)N2Cc4ccccc4C[C@H]2CN2CCOCC2)CN(S(=O)(=O)Cc2ccccc2)CC3)n2c1CCCC2)c1ccc(O)cc1 [Example 4, N-(4-Hydroxyphenyl)-N-methyl-3-{7-[(3S)-3-(morpholin-4-ylmethyl)-1,2,3,4-tetrahydroisoquinoline-2-carbonyl]-2-phenylmethanesulfonyl-1,2,3,4-tetrahydroisoquinolin-6-yl}-5,6,7,8-tetrahydroindolizine-1-carboxamide]",71
3.8,"Cc1c(C(=O)N(C)c2ccccc2)cc(-c2cc3c(cc2C(=O)N2Cc4ccccc4C[C@H]2C)CN(C(=O)Oc2ccccc2)CC3)n1C [Example 114, Phenyl 6-{1,5-dimethyl-4-[methyl(phenyl)carbamoyl]-1H-pyrrol-2-yl}-7-[(3R)-3-methyl-1,2,3,4-tetrahydroisoquinoline-2-carbonyl]-1,2,3,4-tetrahydroisoquinoline-2-carboxylate]",28
4.4,"C[C@@H]1Cc2ccccc2CN1C(=O)c1cc2c(cc1-c1cc(C(=O)N(C)c3ccc(O)cc3)c3n1CCCC3)CN(C(=O)NCc1ccccc1)C2 [Example 61, N-Benzyl-5-{1-[(4-hydroxyphenyl)(methyl)carbamoyl]-5,6,7,8-tetrahydroindolizin-3-yl}-6-[(3R)-3-methyl-1,2,3,4-tetrahydroisoquinoline-2-carbonyl]-2,3-dihydro-1H-isoindole-2-carboxamide]",85
9,"CN(C(=O)c1cc(-c2cc3c(cc2C(=O)N2Cc4ccccc4C[C@H]2CN2CCOCC2)CN(C(=O)CCc2ccccc2)C3)n2c1CCCC2)c1ccc(O)cc1 [Example 9, N-(4-Hydroxyphenyl)-N-methyl-3-{6-[(3S)-3-(morpholin-4-ylmethyl)-1,2,3,4-tetrahydroisoquinoline-2-carbonyl]-2-(3-phenylpropanoyl)-2,3-dihydro-1H-isoindol-5-yl}-5,6,7,8-tetrahydroindolizine-1-carboxamide hydrochloride]",125
42,"CC(=O)N1Cc2cc(C(=O)N3Cc4ccccc4C[C@H]3C)c(-c3cc(C(=O)N(C)c4ccc(O)cc4)c(C)n3C)cc2C1 [Example 112, 5-{2-Acetyl-6-[(3R)-3-methyl-1,2,3,4-tetrahydroisoquinoline-2-carbonyl]-2,3-dihydro-1H-isoindol-5-yl}-N-(4-hydroxyphenyl)-N,1,2-trimethyl-1H-pyrrole-3-carboxamide]",394
7.9,"C[C@@H]1Cc2ccccc2CN1C(=O)c1cc2c(cc1-c1cc(C(=O)N(C)c3ccc(O)cc3)c3n1CCCC3)CN(C(=O)Cc1ccccc1)C2 [Example 14, N-(4-Hydroxyphenyl)-N-methyl-3-{6-[(3R)-3-methyl-1,2,3,4-tetrahydroisoquinoline-2-carbonyl]-2-(2-phenylacetyl)-2,3-dihydro-1H-isoindol-5-yl}-5,6,7,8-tetrahydroindolizine-1-carboxamide]",27
2.2,"Cc1c(C(=O)N(C)c2ccc(O)cc2)cc(-c2cc3c(cc2C(=O)N2Cc4ccccc4C[C@H]2C)CN(C(=O)Oc2cccc(CCC(=O)N(C)C)c2)CC3)n1C [Example 776, 3-[2-(Dimethylcarbamoyl)ethyl]phenyl 6-{4-[(4-hydroxyphenyl)(methyl)carbamoyl]-1,5-dimethyl-1H-pyrrol-2-yl}-7-[(3R)-3-methyl-1,2,3,4-tetrahydroisoquinoline-2-carbonyl]-1,2,3,4-tetrahydroisoquinoline-2-carboxylate]",1.1
4.6,"Cc1c(C(=O)N(C)c2ccc(O)cc2)cc(-c2cc3c(cc2C(=O)N2Cc4ccccc4C[C@H]2CN2CCOCC2)CN(C(=O)CC2CCCCC2)CC3)n1C [Example 794, 5-[2-(2-Cyclohexylacetyl)-7-[(3S)-3-(morpholin-4-ylmethyl)-1,2,3,4-tetrahydroisoquinoline-2-carbonyl]-1,2,3,4-tetrahydroisoquinolin-6-yl]-N-(4-hydroxyphenyl)-N,1,2-trimethyl-1H-pyrrole-3-carboxamide]",70

# Further lines, the molecule ahead of its results:
Structure (SMILES),IC50 [1] [nM],IC50 [2] [nM]
"Cc1c(C(=O)N(C)c2ccc(O)cc2)cc(-c2cc3c(cc2C(=O)N2Cc4ccccc4C[C@H]2CN2CCOCC2)CN(C(=O)Oc2ccc(C(=O)O)cc2)CC3)n1C [Example 721, 4-(6-{4-[(4-Hydroxyphenyl)(methyl)carbamoyl]-1,5-dimethyl-1H-pyrrol-2-yl}-7-[(3S)-3-(morpholin-4-ylmethyl)-1,2,3,4-tetrahydroisoquinoline-2-carbonyl]-1,2,3,4-tetrahydroisoquinoline-2-carbonyloxy)benzoic acid]",4.9,> 150
"CCNC(=O)N1Cc2cc(C(=O)N3Cc4ccccc4C[C@H]3C)c(-c3cc(C(=O)N(C)c4ccc(O)cc4)c(C)n3C)cc2C1 [Example 110, N-Ethyl-5-{4-[(4-hydroxyphenyl)(methyl)carbamoyl]-1,5-dimethyl-1H-pyrrol-2-yl}-6-[(3R)-3-methyl-1,2,3,4-tetrahydroisoquinoline-2-carbonyl]-2,3-dihydro-1H-isoindole-2-carboxamide]",19,329
"C[C@@H]1Cc2ccccc2CN1C(=O)c1cc2c(cc1-c1cc(C(=O)N(C)c3ccc(O)cc3)c3n1CCCC3)CCN(C(=O)Oc1ccc(NCCN(C)C)cc1)C2 [Example 153, 4-{[2-(Dimethylamino)ethyl]amino}phenyl 6-{1-[(4-hydroxyphenyl)(methyl)carbamoyl]-5,6,7,8-tetrahydroindolizin-3-yl}-7-[(3R)-3-methyl-1,2,3,4-tetrahydroisoquinoline-2-carbonyl]-1,2,3,4-tetrahydroisoquinoline-2-carboxylate]",4.2,3.6
"CN(C(=O)c1cc(-c2cc3c(cc2C(=O)N2Cc4ccccc4C[C@H]2CN2CCOCC2)CN(C(=O)Oc2ccc(C(F)(F)F)cc2)CC3)n2c1CCCC2)c1ccc(O)cc1 [Example 124, 4-(Trifluoromethyl)phenyl 6-{1-[(4-hydroxyphenyl)(methyl)carbamoyl]-5,6,7,8-tetrahydroindolizin-3-yl}-7-[(3S)-3-(morpholin-4-ylmethyl)-1,2,3,4-tetrahydroisoquinoline-2-carbonyl]-1,2,3,4-tetrahydroisoquinoline-2-carboxylate]",12,50
"Cc1c(C(=O)N(C)c2ccc(O)cc2)cc(-c2cc3c(cc2C(=O)N2Cc4ccccc4C[C@H]2CN2CCOCC2)CN(C(=O)Oc2ccc4cc[nH]c4c2)CC3)n1C [Example 575, 1H-Indol-6-yl 6-{4-[(4-hydroxyphenyl)(methyl)carbamoyl]-1,5-dimethyl-1H-pyrrol-2-yl}-7-[(3S)-3-(morpholin-4-ylmethyl)-1,2,3,4-tetrahydroisoquinoline-2-carbonyl]-1,2,3,4-tetrahydroisoquinoline-2-carboxylate]",6.3,12
"CNC(=O)N1Cc2cc(C(=O)N3Cc4ccccc4C[C@H]3C)c(-c3cc(C(=O)N(C)c4ccc(O)cc4)c(C)n3C)cc2C1 [Example 170, 5-{4-[(4-Hydroxyphenyl)(methyl)carbamoyl]-1,5-dimethyl-1H-pyrrol-2-yl}-N-methyl-6-[(3R)-3-methyl-1,2,3,4-tetrahydroisoquinoline-2-carbonyl]-2,3-dihydro-1H-isoindole-2-carboxamide]",12,491
"C[C@@H]1Cc2ccccc2CN1C(=O)c1cc2c(cc1-c1cc(C(=O)N(C)c3ccc(O)cc3)c3n1CCCC3)CCN(C(=O)OC(C)(C)C)C2 [Example 47, tert-Butyl 6-{1-[(4-hydroxyphenyl)(methyl)carbamoyl]-5,6,7,8-tetrahydroindolizin-3-yl}-7-[(3R)-3-methyl-1,2,3,4-tetrahydroisoquinoline-2-carbonyl]-1,2,3,4-tetrahydroisoquinoline-2-carboxylate]",12,45
"Cc1c(C(=O)N(C)c2ccc(O)cc2)cc(-c2cc3c(cc2C(=O)N2Cc4ccccc4C[C@H]2CCN2CCOCC2)CN(C(=O)Cc2ccccc2)CC3)n1C [Example 779, N-(4-Hydroxyphenyl)-N,1,2-trimethyl-5-{7-[(3S)-3-[2-(morpholin-4-yl)ethyl]-1,2,3,4-tetrahydroisoquinoline-2-carbonyl]-2-(2-phenylacetyl)-1,2,3,4-tetrahydroisoquinolin-6-yl}-1H-pyrrole-3-carboxamide]",2.9,24
"C[C@@H]1Cc2ccccc2CN1C(=O)c1cc2c(cc1-c1cc(C(=O)N(C)c3ccc(O)cc3)c3n1CCCC3)CN(C(=O)CCC1CCCCC1)C2 [Example 32, 3-[2-(3-Cyclohexylpropanoyl)-6-[(3R)-3-methyl-1,2,3,4-tetrahydroisoquinoline-2-carbonyl]-2,3-dihydro-1H-isoindol-5-yl]-N-(4-hydroxyphenyl)-N-methyl-5,6,7,8-tetrahydroindolizine-1-carboxamide]",47,141
"C[C@@H]1Cc2ccccc2CN1C(=O)c1cc2c(cc1-c1cc(C(=O)N(C)c3ccc(O)cc3)c3n1CCCC3)CCN(C(=O)[C@H](C)c1ccccc1)C2 [Example 91, N-(4-Hydroxyphenyl)-N-methyl-3-{7-[(3R)-3-methyl-1,2,3,4-tetrahydroisoquinoline-2-carbonyl]-2-[(2R)-2-phenylpropanoyl]-1,2,3,4-tetrahydroisoquinolin-6-yl}-5,6,7,8-tetrahydroindolizine-1-carboxamide]",7,73
